Laboratory results reported in patent publication US20260049072A1, “HETEROCYCLIC COMPOUND FOR INDUCING DEGRADATION OF MUTANT KRAS PROTEIN” (Astellas Pharma Inc., priority 2022, published 2026).
Read-outs that look alike come from different tables or passages of the source.

Test system: PA-TU-8902 cells
Assay: Non-anchorage-dependent cell growth inhibition (spheroid 3D culture), PA-TU-8902
Type: cell-based, human
Conditions: KRAS G12V mutant-positive, 3D spheroid, six days, CellTiter-Glo 2.0, read-out: PA-TU-8902 IC50
Experimental: Test Example 3: Evaluation of Non-Anchorage-Dependent Cell Growth Inhibitory Activity on Human KRAS G12V Mutant-Positive Pancreatic Cancer Line PA-TU-8902, Human KRAS G12D Mutant-Positive Pancreatic Cancer Line AsPC-1 or Human KRAS G12C Mutant-Positive Pancreatic Cancer Line MIA PaCa-2
The non-anchorage-dependent cell growth inhibitory activities of subject compounds were evaluated by spheroid 3D cell culture.
PA-TU-8902 cells, AsPC-1 cells or MIA PaCa-2 cells (RIKEN BRC, RCB2094) were seeded at 36 µL/well on a low-cell-adhesive round bottom 384-well plate (Prime Surface: from Sumitomo Bakelite) to give 5×10^2 cells per well. The PA-TU-8902 cells were under the same conditions as in Test Example 1-1, and the AsPC-1 cells were under the same conditions as in Test Example 1-2. For the MIA PaCa-2 cells, RPMI-1640 medium containing 10% fetal bovine serum was used in the presence of 5% CO2 at 37° C.
The next day, the subject compounds (6-9 points having final concentrations in the range of 3 μM to 0.3 nM) and DMSO, which was the solvent for the subject compounds, as a negative control were diluted 100-fold with a fresh medium and were each added at 4 μL per well. After culturing in the presence of 5% CO2 at 37° C. for six days, CellTiter-Glo 2.0 (from Promega) was added at 20 μL per well. After stirring with a plate mixer (from FINEPCR) at normal temperature for an hour, the luminescent signals were measured with ARVO X3 (from PerkinElmer).
With the signaling value in treatment with DMSO taken as 0% inhibition and with the signaling value in the medium alone without cells taken as 100% inhibition, the 50% inhibition values (IC50) were calculated by Sigmoid-Emax model nonlinear regression analysis.

## COC(C)(C)COc1cc(OC2CN(C(=O)N[C@H]3C[C@@H](N(C)C)C3)C2)c2cc(C3CC3)c(-c3c(C)c(F)cc4[nH]ncc34)c(OCc3ccc(-c4cn([C@H](C(=O)N5C[C@H](O)C[C@H]5C(=O)N[C@@H](CO)c5ccc(-n6cncn6)cc5)C(C)C)nn4)cc3)c2n1 (atropisomer, axis not shown) [Example 10]
Homo sapiens, PaTu 8902, 144 h
  IC50: 69 nM

## CO[C@@H](C)COc1cc(OC2CN(C(=O)N3CC(CN(C)C)C3)C2)c2cc(C3CC3)c(-c3c(C)c(F)cc4[nH]ncc34)c(OCc3ccc(-c4cn([C@H](C(=O)N5C[C@H](O)C[C@H]5C(=O)N[C@@H](CO)c5ccc(N6CCOC6=O)cc5)C(C)C)nn4)cc3)c2n1 (atropisomer, axis not shown) [Example 8]
Homo sapiens, PaTu 8902, 144 h
  IC50: 102 nM

## Cc1ncsc1-c1ccc([C@H](CO)NC(=O)[C@@H]2C[C@@H](O)CN2C(=O)[C@H](C(C)C)n2cc(-c3ccc(COc4c(-c5c(C)c(F)cc6[nH]ncc56)c(C5CC5)cc5c(N(C)C6CN(C(=O)O[C@H]7CCN(C)C7)C6)nc(OC6CCOCC6)nc45)cc3)nn2)cc1 (atropisomer, axis not shown) [Example 33]
Homo sapiens, PaTu 8902, 144 h
  IC50: 103 nM

## Cc1ncsc1-c1ccc([C@H](CO)NC(=O)[C@@H]2C[C@@H](O)CN2C(=O)[C@H](C(C)C)n2cc(-c3ccc(COc4c(-c5c(C)c(F)cc6[nH]ncc56)c(C5CC5)cc5c(OC6CN(C(=O)NCCO)C6)nc(OC6CCOCC6)nc45)cc3)nn2)cc1 [Example 16]
Homo sapiens, PaTu 8902, 144 h
  IC50: 261 nM

## CO[C@@H](C)COc1nc(N(C)C2CN(C(=O)CCCN(C)C)C2)c2cc(C3CC3)c(-c3c(C)c(F)cc4[nH]ncc34)c(OCc3ccc(-c4cn([C@H](C(=O)N5C[C@H](O)C[C@H]5C(=O)N[C@@H](CO)c5ccc(-c6scnc6C)cc5)C(C)C)nn4)cc3)c2n1 (atropisomer, axis not shown) [Example 24]
Homo sapiens, PaTu 8902, 144 h
  IC50: 125 nM

## Cc1ncsc1-c1ccc([C@H](CO)NC(=O)[C@@H]2C[C@@H](O)CN2C(=O)[C@H](C(C)C)n2cc(-c3ccc(COc4c(-c5c(C)c(F)cc6[nH]ncc56)c(C5CC5)cc5c(OC6CN(C(=O)NCCN(C)C)C6)nc(OCC(C)(C)CN(C)C)nc45)cc3)nn2)cc1 [Example 36]
Homo sapiens, PaTu 8902, 144 h
  IC50: 143 nM

## CO[C@@H](C)COc1nc(NC2CN(C(=O)OCCN(C)C)C2)c2cc(C3CC3)c(-c3c(C)c(F)cc4[nH]ncc34)c(OCc3ccc(-c4cn([C@H](C(=O)N5C[C@H](O)C[C@H]5C(=O)N[C@@H](CO)c5ccc(-c6scnc6C)cc5)C(C)C)nn4)cc3)c2n1 (atropisomer, axis not shown; (M)) [Example 34, 2-(dimethylamino)ethyl 3-({(7M)-6-cyclopropyl-7-(6-fluoro-5-methyl-H-indazol-4-yl)-8-{[4-(1-{(2S)-1-[(2S,4R)-4-hydroxy-2-({(1R)-2-hydroxy-1-[4-(4-methyl-1,3-thiazol-5-yl)phenyl]ethyl}carbamoyl)pyrrolidin-1-yl]-3-methyl-1-oxobutan-2-yl}-1H-1,2,3-triazol-4-yl)phenyl]methoxy}-2-[(2S)-2-methoxypropoxy]quinazolin-4-yl}amino)azetidine-1-carboxylate]
Homo sapiens, PaTu 8902, 144 h
  IC50: 109 nM

## Cc1c(F)cc2[nH]ncc2c1-c1c(C2CC2)cc2c(OC3CN(C(=O)NCCN(C)C)C3)nc(OC3CCOCC3)nc2c1OCc1ccc(-c2cn([C@H](C(=O)N3C[C@H](O)C[C@H]3C(=O)N[C@@H](CO)c3ccc(-n4cccn4)cc3)C(C)C)nn2)cc1 [Example 30]
Homo sapiens, PaTu 8902, 144 h
  IC50: 235 nM

## CO[C@@H](C)COc1nc(OC2CN(C(=O)NCCN3CCCC3)C2)c2cc(C3CC3)c(-c3c(C)c(F)cc4[nH]ncc34)c(OCc3ccc(-c4cn([C@H](C(=O)N5C[C@H](O)C[C@H]5C(=O)N[C@@H](CO)c5ccc(-c6scnc6C)cc5)C(C)C)nn4)cc3)c2n1 (atropisomer, axis not shown) [Example 22]
Homo sapiens, PaTu 8902, 144 h
  IC50: 65 nM

## Cc1c(F)cc2[nH]ncc2c1-c1c(C2CC2)cc2c(NC3CN(C(=O)NCCN(C)C)C3)nc(OC[C@@H]3CCCO3)nc2c1OCc1ccc(-c2cn([C@H](C(=O)N3C[C@H](O)C[C@H]3C(=O)N[C@@H](CO)c3ccc(-n4cncn4)cc3)C(C)C)nn2)cc1 (atropisomer, axis not shown) [Example 32]
Homo sapiens, PaTu 8902, 144 h
  IC50: 105 nM

## Cc1ncsc1-c1ccc([C@H](CO)NC(=O)[C@@H]2C[C@@H](O)CN2C(=O)[C@H](C(C)C)n2cc(-c3ccc(COc4c(-c5c(C)c(F)cc6[nH]ncc56)c(C5CC5)cc5c(OC6CN(C(=O)NCCN(C)C)C6)nc(OC6CCN(CC(F)F)CC6)nc45)cc3)nn2)cc1 (atropisomer, axis not shown) [Example 31]
Homo sapiens, PaTu 8902, 144 h
  IC50: 67 nM

## Cc1ncsc1-c1ccc([C@H](CCO)NC(=O)[C@@H]2C[C@@H](O)CN2C(=O)[C@H](C(C)C)n2cc(-c3ccc(COc4c(-c5c(C)c(F)cc6[nH]ncc56)c(C5CC5)cc5c(NC6CN(C(=O)NCCN(C)C)C6)nc(OC6CCOCC6)nc45)cc3)nn2)cc1 [Example 39, (4R)-1-[(2S)-2-(4-{4-[({(7M)-6-cyclopropyl-4-[(1-{[2-(dimethylamino)ethyl]carbamoyl}azetidin-3-yl)oxy]-7-(6-fluoro-5-methyl-1H-indazol-4-yl)-2-[(oxan-4-yl)oxy]quinazolin-8-yl}oxy)methyl]phenyl}-1H-1,2,3-triazol-1-yl)-3-methylbutanoyl]-4-hydroxy-N-{(1S)-3-hydroxy-1-[4-(4-methyl-1,3-thiazol-5-yl)phenyl]propyl}-L-prolinamide]
Homo sapiens, PaTu 8902, 144 h
  IC50: 52 nM

## CO[C@@H](C)COc1nc(N2CC[C@H]2C(N)=O)c2cc(C3CC3)c(-c3c(C)c(F)cc4[nH]ncc34)c(OCc3ccc(-c4cn([C@H](C(=O)N5C[C@H](O)C[C@H]5C(=O)N[C@@H](CN(C)C)c5ccc(-c6scnc6C)cc5)C(C)C)nn4)cc3)c2n1 (atropisomer, axis not shown) [Example 37]
Homo sapiens, PaTu 8902, 144 h
  IC50: 78 nM

## CO[C@@H](C)COc1nc(NC2CN(C(=O)O[C@H]3C[C@@H](N(C)C)C3)C2)c2cc(C3CC3)c(-c3c(C)c(F)cc4[nH]ncc34)c(OCc3ccc(-c4cn([C@H](C(=O)N5C[C@H](O)C[C@H]5C(=O)N[C@@H](CO)c5ccc(-c6scnc6C)nc5)C(C)C)nn4)cc3)c2n1 (atropisomer, axis not shown) [Example 3]
Homo sapiens, PaTu 8902, 144 h
  IC50: 160 nM

## CO[C@@H](C)COc1cc(OC2CN(C(=O)NCCN(C)C)C2)c2cc(C3CC3)c(-c3c(C)c(F)cc4[nH]ncc34)c(OCc3ccc(-c4cn([C@H](C(=O)N5C[C@H](O)C[C@H]5C(=O)N[C@@H](CO)c5ccc(-c6scnc6C)cc5)C(C)C)nn4)cc3)c2n1 [Example 43, (4R)-1-[(2S)-2-(4-{4-[({(7M)-6-cyclopropyl-4-[(1-{[2-(dimethylamino)ethyl]carbamoyl}azetidin-3-yl)oxy]-7-(6-fluoro-5-methyl-1H-indazol-4-yl)-2-[(2S)-2-methoxypropoxy]quinolin-8-yl}oxy)methyl]phenyl}-1H-1,2,3-triazol-1-yl)-3-methylbutanoyl]-4-hydroxy-N-{(1R)-2-hydroxy-1-[4-(4-methyl-1,3-thiazol-5-yl)phenyl]ethyl}-L-prolinamide]
  IC50: 61 nM

## Cc1ncsc1-c1ccc([C@H](CO)NC(=O)[C@@H]2C[C@@H](O)CN2C(=O)[C@H](C(C)C)n2cc(-c3ccc(COc4c(-c5c(C)c(F)cc6[nH]ncc56)c(C5CC5)cc5c(N6CC(C#N)C6)nc(OC[C@@H]6CCN(C)C6)nc45)cc3)nn2)cc1 [Example 38]
Homo sapiens, PaTu 8902, 144 h
  IC50: 177 nM

## CO[C@@H](C)COc1nc(NC2CN(C(=O)N3CCN(C)CC3)C2)c2cc(C3CC3)c(-c3c(C)c(F)cc4[nH]ncc34)c(OCc3ccc(-c4cn([C@H](C(=O)N5C[C@H](O)C[C@H]5C(=O)N[C@@H](CO)c5ccc(-n6cncn6)cc5)C(C)C)nn4)cc3)c2n1 (atropisomer, axis not shown) [Example 27]
Homo sapiens, PaTu 8902, 144 h
  IC50: 122 nM

## CC[C@H](C)[C@@H](C(=O)N1C[C@H](O)C[C@H]1C(=O)N[C@@H](CO)c1ccc(-c2scnc2C)cc1)n1cc(-c2ccc(COc3c(-c4c(C)c(F)cc5[nH]ncc45)c(C4CC4)cc4c(O[C@H]5CCN(C(=O)NCCN(C)C)C5)nc(OC[C@H](C)OC)nc34)cc2)nn1 (single isomer, unassigned) [Example 28]
Homo sapiens, PaTu 8902, 144 h
  IC50: 159 nM

## CO[C@@H](C)COc1cc(OC2CN(C(=O)N3CC[C@@H](N(C)C)C3)C2)c2cc(C3CC3)c(-c3c(C)c(F)cc4[nH]ncc34)c(OCc3ccc(-c4cn([C@H](C(=O)N5C[C@H](O)C[C@H]5C(=O)N[C@@H](CO)c5ccc(-n6cncn6)cc5)C(C)C)nn4)cc3)c2n1 (atropisomer, axis not shown) [Example 7]
Homo sapiens, PaTu 8902, 144 h
  IC50: 81 nM
